Values joined by “and” are separate entries in the source; they are usually repeats but may differ in a detail not shown here. Equal values may be shown once. Ends that are not written are not given here. Peptide text beside a SMILES is read from it. * marks the point of attachment. Acm = CC(=O)NC*
What was measured:
[1] = system: inflammation site of inflammatory model rats; test: Imaging of inflammation sites using technetium-99m labeled peptide (turpentine oil inflammation model rats, gamma camera); format: in vivo, Sparague-Davley Rats; conditions: 37-74 MBq tail vein, mean ± standard error, three rats
Protocol: An amount of 240-300 nmol of Peptide-2 obtained in EXAMPLE 2 was taken into each vial, and a volume of a 0.1M phosphate buffer solution (pH 8.0) was added thereto to adjust the whole […] Atmosphere in the vial was replaced with argon; then 180-300 nmol of dithiothreitol was added thereto, The mixture was then allowed to react for one hour at room temperature. Next, 120 nmol of stannous chloride and 740-1110 MBq of sodium pertechnetate were added. The mixture was left for one hour under gentle agitation. Peptide-2 labeled with technetium-99m was yielded. Peptide labeled had radiochemical purity not less than 90%.
Experiments were made for all the peptides those prepared in EXAMPLEs 4, 5, 6 and 7. Each of the peptides was taken, in an amount of 0.2-1.0 μmol, into a vial respectively, and a volume of a 0.1M phosphate buffer solution (pH 8.0) was added thereto to adjust the whole volume to 500 μl. Atmosphere in the respective vial was replaced with argon. To each vial, 500 μl of 1.5-2.2 GBq/ml glucoheptanate labeled with technetium-99m yielded in EXAMPLE 16 was added and quickly agitated. Thereafter, the mixture was allowed to react for 20 minutes in a boiling water bath. Labeling percentage of all the experimented peptides after cooling was 90-95% according to TLC.
(§1) To the right femoral part of Sparague-Davley Rats weighing about 220 g, 100 μl of turpentine oil was subcutaneously administered. After 24 hours, when inflammation was clearly observed, Ravonal anesthesia was applied; then, Peptide-1-DTPA-indium-111 and Peptide-3-Sulfo-SMCC-CHI-DTPA-indium-111 obtained in EXAMPLE 14 were respectively administered in an amount of 3.7 MBq-7.4 MBq to the respective tail vein. Images were obtained with gamma camera one, three, and six hours later. A site of interest was set on the image, where the ratio ([T]/[B] ratio) of total counts for the inflammation site [T] to total counts for the corresponding normal site of the opposite leg [B] was determined. The [T]/[B] ratio, one hour after the administration, was 2.63 for Peptide-1-DTPA-indium-111 and 2.09 for Peptide-3-DTPA-indium-111, whereby the focal site was evidently imaged.
After Ravonal anesthesia was applied to the model rats described in EXAMPLE 18, 37-74 MBq of technetium-99m labeled Peptide-2 obtained in EXAMPLE 15, Peptide-4, Peptide-5, Peptide-6 and Peptide-7 obtained in EXAMPLE 17 were each administered to the respective tail vein. Images were obtained with gamma camera 30 minutes and one, three, and six hours later respectively. A site of interest was set on the image and the [T]/[B] ratio was determined. The [T]/[B] ratio, one hour after the administration, was 3.35 for Peptide-2, 4.98 for Peptide-6, 3.36 for Peptide-7, 4.27 for Peptide-4 and 4.41 for Peptide-5 whereby the focal site was evidently imaged.

[2] = Safety of the peptides: bolus tail vein administration to rat, observation until five days, dissection; format: in vivo; conditions: for abnormality in tissue checked with the naked eye (hemostatis, pigmentation, discoloration): dissection five days after 8.3 μg per 1.0 g of rat; for abnormality in tissue checked with the naked eye (hemostatis, pigmentation, discoloration) / extreme change in weight, i.e., weight gain or loss: tail vein; for symptoms such as slobber, vomiting, ocular proptosis, and behavioral abnormality: just after bolus tail vein administration, 8.3 μg per 1.0 g of rat; for extreme change in weight, i.e., weight gain or loss: until five days after 8.3 μg per 1.0 g of rat
Protocol: Assuming that clinical dosage to human is 1.0 mg/60 kg, bolus administration of Peptide-1, Peptide 4 and Peptide-5 in an amount of 8.3 μg per 1.0 g of rat and physiological saline as control were made respectively to the tail vein of the rat. Immediately after the administration, behavior of the rat was observed. The observation was continued until five days later; zero minute, ten minutes, three hours, six hours, one day, two days, three days, four days, and five days later. Just after the peptide administration, symptoms such as slobber, vomiting, ocular proptosis, and behavioral abnormality were not observed. Furthermore, extreme change in weight, i.e., weight gain or loss was not observed until five days later. After weighing five days later, the rats were dissected. Abnormality in tissue was checked with the naked eye; abnormality in any tissue was not noted such as hemostatis, pigmentation, or discoloration. These gave estimation that more than 1,000 times administration of the assumed clinical dosage would be safe.

[3] = system: inflammation site of inflammation model rats; test: Imaging of inflammation sites using indium-111 labeled peptide (turpentine oil inflammation model rats, gamma camera); format: in vivo, Sparague-Davley Rats; conditions: 3.7-7.4 MBq tail vein, mean ± standard error, three rats
Protocol: Peptide-1-DTPA obtained in EXAMPLE 8, in an amount of 100 through 200 nmol was adjusted to pH 5.7 in a 0.1M citrate buffer solution, and then 37 to 74 MBq of indium (^111 In) chloride was added thereto. After agitation, the solution was left as such for 15 minutes. A part of the solution was taken and checked for the labeling percentage by electrophoresis. The radiochemical purity of the target compound was 98%. Peptide-3-Sulfo-SMCC-CHI-DTPA obtained in EXAMPLE 10 was also labeled with In-111 in the same way as above, and the radiochemical purity of the target compound was 90%.
as §1

[4] = system: focal region of model rats with infectious disease (Staphylococcus aureus); test: Imaging of rat model with infectious disease (Staphylococcus aureus) using technetium-99m labeled peptide; format: in vivo, Sparague-Davely Rats; conditions: 37-74 MBq tail vein, mean ± standard error
Protocol: In 1.0 mL of physiological saline, 10^8 of viable microbe cells of Staphylococcus aureus were suspended. An aliquot of 100 μl was administered intramuscularly to the right femoral region of Sparague-Davely Rats weighing about 220 g. After 24 hours, Ravonal anesthesia was applied to the model rats that had clearly evident inflammation; then, 37-74 MBq of technetium-99m labeled Peptide-6 obtained in […] was administered to the tail vein. Images were obtained with gamma camera one, three, and six hours later respectively. A site of interest was set on the image, and the [T]/[B] ratio was determined.

[5] = assumed clinical dosage to human 1.0 mg/60 kg, estimate from rat observation

Q: For “C(Acm)GC(Acm)GGKTKPREQQYNSTYRVV (also: technetium-99m label) [Peptide-5]”, which “[T]/[B] ratio of Tc-99m labeled peptide in inflammatory model rats” value (from here on “[T]/[B] ratio … in inflammatory model rats”) ([1]; 30 mins after administration) is on record?
A: 2.61 ± 0.08

Q: And the “[T]/[B] ratio … in inflammatory model rats” value ([1]; 1 hr. after administration)?
A: 4.41 and 4.41 ± 0.62

Q: What about the “[T]/[B] ratio … in inflammatory model rats” value ([1]; 3 hrs. after administration) of the same compound?
A: 3.85 ± 0.63

Q: And the “estimated safe administration relative to the assumed clinical dosage” value [2, 5]?
A: more than 1,000 times

Q: And the “abnormality in tissue checked with the naked eye (hemostatis, pigmentation, discoloration)” value [2]?
A: not noted

Q: And the “symptoms such as slobber, vomiting, ocular proptosis, and behavioral abnormality” value [2]?
A: not observed

Q: What about the “extreme change in weight, i.e., weight gain or loss” value [2] of the same compound?
A: not observed

Q: Which results are given for `CC(C)C[C@H](NC(=O)[C@H](CC(C)C)NC(=O)[C@H](CCC(=O)O)NC(=O)[C@@H]1CCCN1C(=O)CNC(=O)CNC(=O)[C@@H](N)CCCCN)C(=O)NCC(=O)NCC(=O)N1CCC[C@H]1C(=O)N[C@@H](CO)C(=O)N[C@H](C(=O)O)C(C)C` [Peptide-1, KGGPELLGGPSV] (H-KGGPELLGGPSV-OH)?
A: abnormality in tissue checked with the naked eye (hemostatis, pigmentation, discoloration) [2]: not noted; symptoms such as slobber, vomiting, ocular proptosis, and behavioral abnormality [2]: not observed; estimated safe administration relative to the assumed clinical dosage ([2]; rat, in vivo): more than 1,000 times; extreme change in weight, i.e., weight gain or loss [2]: not observed

Q: With `CC(C)C[C@H](NC(=O)[C@@H](N)CC(C)C)C(=O)NCC(=O)NCC(=O)N1CCC[C@H]1C(=O)N[C@@H](CO)C(=O)N[C@H](C(=O)N[C@@H](CS)C(=O)O)C(C)C` [Peptide-3, LLGGPSVC] (H-LLGGPSVC-OH) as the compound, how does the “[T]/[B] ratio of In-111 labeled peptides in inflammation model rats” value (from here on “[T]/[B] ratio of In-111 labeled peptides”) ([3]; 1 hr. after administration, inflammation site vs opposite normal leg) read?
A: 2.09 ± 0.18

Q: And the “[T]/[B] ratio of In-111 labeled peptides” value ([3]; 3 hrs. after administration)?
A: 2.46 ± 0.29

Q: And the “[T]/[B] ratio of In-111 labeled peptides” value ([3]; 6 hrs. after administration)?
A: 2.78 ± 0.15

Q: For “C(Acm) GC(Acm)GGGKEYKAKVSNKALPAPIEKTISK (C(Acm)GC(Acm)GGGKEYKAKVSNKALPAPIEKTISK; also: technetium-99m label) [Peptide-4]”, which “[T]/[B] ratio … in inflammatory model rats” value ([1]; 30 mins after administration) is on record?
A: 2.47 ± 0.17

Q: What about the “[T]/[B] ratio … in inflammatory model rats” value ([1]; 1 hr. after administration) of the same compound?
A: 4.27 and 4.27 ± 0.26

Q: What about the “[T]/[B] ratio … in inflammatory model rats” value ([1]; 3 hrs. after administration) of the same compound?
A: 3.10 ± 0.20

Q: What about the “estimated safe administration relative to the assumed clinical dosage” value [2, 5] of the same compound?
A: more than 1,000 times

Q: And the “abnormality in tissue checked with the naked eye (hemostatis, pigmentation, discoloration)” value [2]?
A: not noted

Q: What about the “symptoms such as slobber, vomiting, ocular proptosis, and behavioral abnormality” value [2] of the same compound?
A: not observed

Q: What about the “extreme change in weight, i.e., weight gain or loss” value [2] of the same compound?
A: not observed

Q: Which “[T]/[B] ratio … in inflammatory model rats” value ([1]; 1 hr. after administration) does the source give for “(PELLGGPSV)×4 in parallel (K)×2 in parallel (KGGC(Acm)GC(Acm)) (PELLGGPSVPELLGGPSVPELLGGPSVPELLGGPSVKKKGGC(Acm)GC(Acm); also: branched Lys scaffold carrying four PELLGGPSV arms) [Peptide-6]” here?
A: 4.98 and 4.98 ± 0.23

Q: And the “[T]/[B] ratio … in inflammatory model rats” value ([1]; 3 hrs. after administration)?
A: 4.61 ± 0.49

Q: And the “[T]/[B] ratio … in inflammatory model rats” value ([1]; 6 hrs. after administration)?
A: 3.20 ± 0.39

Q: And the “[T]/[B] ratio of Tc-99m labeled peptide in model rats with infectious disease” value (shortened to “[T]/[B] ratio … with infectious disease”) ([4]; 1 hr. after administration, S. aureus intramuscular, right femoral region)?
A: 1.92 and 1.92 ± 0.10

Q: And the “[T]/[B] ratio … with infectious disease” value ([4]; 3 hrs. after administration, S. aureus model)?
A: 1.58 ± 0.05

Q: And the “[T]/[B] ratio … with infectious disease” value ([4]; 6 hrs. after administration, S. aureus model)?
A: 1.52 ± 0.17

Q: Which results are given for “C(Acm)GC(Acm)GG[(PELLGGPSV)×3 repeats in tandem]A (C(Acm)GC(Acm)GGPELLGGPSVPELLGGPSVPELLGGPSVA; also: technetium-99m label) [Peptide-7]”?
A: [T]/[B] ratio of Tc-99m labeled peptide in inflammatory model rats ([1]; 1 hr. after administration): 3.36 and 3.36 ± 0.31; [T]/[B] ratio of Tc-99m labeled peptide in inflammatory model rats ([1]; 3 hrs. after administration): 2.18 ± 0.39; [T]/[B] ratio of Tc-99m labeled peptide in inflammatory model rats ([1]; 6 hrs. after administration): 2.26 ± 0.20

Q: For “CGCGGLLGGPSV (cysteine pairing not given here; also: technetium-99m label) [Peptide-2]”, which “[T]/[B] ratio … in inflammatory model rats” value ([1]; 1 hr. after administration) is on record?
A: 3.35 and 3.35 ± 0.33

Q: What about the “[T]/[B] ratio … in inflammatory model rats” value ([1]; 3 hrs. after administration) of the same compound?
A: 2.78 ± 0.23

Q: And the “[T]/[B] ratio … in inflammatory model rats” value ([1]; 6 hrs. after administration)?
A: 2.82 ± 0.17

Reference: patent publication US5821330A, “Peptide having inflammation affinity and radioactive diagnostic containing the same” (Nihon Medi-Physics Co., Ltd., priority 1993, dated 1998)
